Measured values from patent US20240050408A1, “USE OF MGLUR5 ANTAGONISTS FOR TREATING AMPHETAMINE ADDICTION” (NOVARTIS AG, priority 2020, published 2024).

Legend:
[1] = test system: patients with Cocaine Use Disorder (CUD); assay: Phase 2 trial: Clinical Global Impression (CGI) improvement; format: in vivo, human; conditions: P<0.001
Experimental: (§1) This study was conducted in patients with CUD and consisted of about a 21-day screening period followed by a 7-day baseline period, a 98-day outpatient treatment period, and an end of study visit evaluation about 14 days after the last study drug administration ([…]. A). Study treatment was taken twice daily (separated by about 12-hour intervals) with food. For patients in the mavoglurant arm [mavoglurant (free form) provided as modified release formulation (e.g. in WO2014/199316)], an uptitration regimen was performed for 14 days (50 mg b.i.d. from Days 1 to 7 and 100 mg b.i.d from Days 8 to 14) and was followed by 200 mg b.i.d for 84 days.
The primary endpoint was the proportion of cocaine use days during the treatment period, assessed by timeline followback [TLFB] cocaine self-report report. The secondary endpoints included a weekly urine analysis for a log-transformed quantitative measure of cocaine metabolite benzoylecgonine (BE), safety assessments (clinical parameters, suicidal ideation, adverse events [AE] and serious adverse events [SAE] at every visit), and pre- and post-dose levels of mavoglurant in the plasma. Exploratory endpoints included Clinical Global Impression (CGI; 2 components: CGI-S [rated illness severity], CGI-I [rated change from baseline]).
Observer Reported Outcome: • 1. […]

[2] = test system: patients with Cocaine Use Disorder (CUD); assay: Phase 2 trial: alcohol consumption by TLFB; format: in vivo, human; conditions: difference vs placebo not statistically significant (P=0.072)
Experimental: as §1
Alcohol consumption was recorded by the subjects using TLFB. The number of drinks was recorded daily. […] The past consumption of alcohol was the proportion of alcohol over the 28 days preceding the screening visit, which was assessed retrospectively using the TLFB. […]
Patient Reported Outcome included: • 1. The TLFB cocaine: is a cocaine assessment method that obtains estimates of daily cocaine intake and has been evaluated with clinical and nonclinical populations. […] The TLFB alcohol: is a drinking assessment method that obtains estimates of daily drinking and has been evaluated with clinical and nonclinical populations. […]

COC(=O)N1CC[C@@H]2[C@H]1CCC[C@@]2(O)C#Cc1cccc(C)c1 [mavoglurant, (-)-(3aR,4S,7aR)-4-Hydroxy-4-m-tolylethynyl-octahydro-indole-1-carboxylic acid methyl ester]
clinical improvement by CGI vs placebo (result in words) ([1]; CGI-I improvement from baseline): significantly enhanced clinical improvement
CGI 'very much' and 'much' improved, patients ([1]; Day 98, placebo 46.6%): 90.9%
alcohol consumption by TLFB [2]: reduced alcohol consumption
